Reference: patent publication US20020035061A1, “COMPOSITIONS AND METHODS FOR TREATING INFECTIONS USING CATIONIC PEPTIDES ALONE OR IN COMBINATION WITH ANTIBIOTICS” (priority 1996, published 2002)
Like-named read-outs stand apart in the source and are kept apart here.

Assays:
[1] = tested on: inherently resistant microorganisms; assay: microbe, parasite or virus in culture; format: cell-based; settings: S. aureus
[2] = tested on: S. pyogenes; assay: Agarose dilution assay (MIC); format: cell-based; settings: S. pyogenes strain SPY006
[3] = tested on: S. marcescens; format: cell-based
[4] = tested on: S. epidermidis; format: cell-based; settings: S. epidermidis strain SE003
[5] = tested on: E. coli; format: cell-based
[6] = tested on: E. faecium; format: cell-based; settings: E. faecium strain EFM003
[7] = tested on: S. pneumoniae; assay: Agarose dilution assay (MIC); format: cell-based
[8] = tested on: K. pneumoniae; format: cell-based
[9] = tested on: microorganisms with acquired resistance; assay: microbe, parasite or virus in culture; format: cell-based
[10] = tested on: bacterial isolates; assay: microbe, parasite or virus in culture; format: cell-based
[11] = tested on: E. cloacae; format: cell-based
[12] = tested on: E. faecalis; format: cell-based; settings: for MIC, Peptide: unmodified parent peptide
[13] = tested on: MSSA (Smith, ATCC # 19640); assay: In vivo efficacy, MSSA infection; parameters: species or system S. aureus; settings: formulation D, 60 min post-infection, end of eight day observation
[14] = tested on: S. maltophilia; format: cell-based
[15] = tested on: P. aeruginosa; format: cell-based
[16] = tested on: H. influenzae; assay: Agarose dilution assay (MIC); format: cell-based; settings: H. influenzae strain HIN002
[17] = tested on: A. calcoaceticus; format: cell-based
[18] = tested on: S. aureus; format: cell-based; settings: for MIC, Peptide: unmodified parent peptide
[19] = A. baumannii ABI001, Tobramycin section
[20] = P. aeruginosa 23, Piperacillin section
[21] = P. aeruginosa PA032, Tobramycin section
[22] = S. maltophilia SMA029, Tobramycin section
[23] = S. maltophilia SMA030, Tobramycin section
[24] = peptide + Piperacillin, P. aeruginosa 23
[25] = peptide + Tobramycin, A. baumannii ABI001
[26] = peptide + Tobramycin, P. aeruginosa PA032
[27] = peptide + Tobramycin, S. maltophilia SMA029
[28] = peptide + Tobramycin, S. maltophilia SMA030
[29] = S. aureus SA014 (also SA014 MRSA)

## ILKKWVWWPWRRK [MBI 11F3CN]
[1]
  Peptide MIC + Tobramycin: 2 µg/mL
[1]; Tobramycin section
  Peptide MIC Alone: 4 µg/mL
[1]; peptide + Tobramycin
  FIC: 0.51
[2]
  MIC: 8 µg/mL
[3]; S. marcescens SMS003, unmodified parent peptide
  MIC, Peptide: >128 µg/mL
[3]; S. marcescens strain SMS004
  MIC: >128 µg/mL
[4]
  MIC: 2 µg/mL
[5]; E. coli ECO005, unmodified parent peptide
  MIC, Peptide: 16 µg/mL
[5]; E. coli strain ECO002
  MIC: 8 µg/mL
[6]
  MIC: 4 µg/mL
[7]; S. pneumoniae strain SBSPN3
  MIC: >128 µg/mL
[7]; S. pneumoniae strain SPN044
  MIC: >128 µg/mL
[8]; K. pneumoniae KP001, unmodified parent peptide
  MIC, Peptide: 64 µg/mL
[8]; K. pneumoniae strain KP002
  MIC: 64 µg/mL
[9]; A. baumannii ABI001
  Peptide MIC + Tobramycin: 16 µg/mL
  Tobramycin MIC + Peptide: 0.5 µg/mL
[9]; [19]
  Peptide MIC Alone: 32 µg/mL
[9]; A. calcoaceticus 3
  Peptide MIC + Piperacillin: 4 µg/mL
  Piperacillin MIC + Peptide: 16 µg/mL
[9]; A. calcoaceticus 3, Piperacillin section
  Peptide MIC Alone: 32 µg/mL
[9]; P. aeruginosa 7
  Peptide MIC + Piperacillin: 64 µg/mL
  Piperacillin MIC + Peptide: 64 µg/mL
[9]; P. aeruginosa 7, Piperacillin section
  Peptide MIC Alone: 128 µg/mL
[9]; P. aeruginosa 23
  Peptide MIC + Piperacillin: 0.5 µg/mL
  Piperacillin MIC + Peptide: 64 µg/mL
[9]; [20]
  Peptide MIC Alone: 64 µg/mL
[9]; P. aeruginosa PA032
  Peptide MIC + Tobramycin: 64 µg/mL
  Tobramycin MIC + Peptide: 4 µg/mL
[9]; [21]
  Peptide MIC Alone: >128 µg/mL
[9]; S. maltophilia 2
  Peptide MIC + Piperacillin: 16 µg/mL
  Piperacillin MIC + Peptide: 16 µg/mL
[9]; S. maltophilia 2, Piperacillin section
  Peptide MIC Alone: 32 µg/mL
[9]; S. maltophilia SMA029
  Peptide MIC + Tobramycin: 32 µg/mL
  Tobramycin MIC + Peptide: 1 µg/mL
[9]; [22]
  Peptide MIC Alone: 128 µg/mL
[9]; S. maltophilia SMA030
  Peptide MIC + Tobramycin: 32 µg/mL
  Tobramycin MIC + Peptide: 1 µg/mL
[9]; [23]
  Peptide MIC Alone: 128 µg/mL
[9]; peptide + Piperacillin, A. calcoaceticus 3
  FIC: 0.63
[9]; peptide + Piperacillin, P. aeruginosa 7
  FIC: 1.00
[9]; [24]
  FIC: 0.51
[9]; peptide + Piperacillin, S. maltophilia 2
  FIC: 0.75
[9]; [25]
  FIC: 0.53
[9]; [26]
  FIC: 0.50
[9]; [27]
  FIC: 0.26
[9]; [28]
  FIC: 0.26
[10]; A. baumannii ABI001
  Peptide MIC + Tobramycin: 16 µg/mL
  Tobramycin MIC + Peptide: 0.5 µg/mL
[10]; [19]
  Peptide MIC Alone: 32 µg/mL
[10]; A. baumannii ABI002
  Peptide MIC + Tobramycin: 8 µg/mL
  Tobramycin MIC + Peptide: 2 µg/mL
[10]; A. baumannii ABI002, Tobramycin section
  Peptide MIC Alone: 16 µg/mL
[10]; P. aeruginosa 23
  Peptide MIC + Piperacillin: 0.5 µg/mL
  Piperacillin MIC + Peptide: 64 µg/mL
[10]; [20]
  Peptide MIC Alone: 64 µg/mL
[10]; P. aeruginosa 41
  Peptide MIC + Piperacillin: 64 µg/mL
  Piperacillin MIC + Peptide: 4 µg/mL
[10]; P. aeruginosa 41, Piperacillin section
  Peptide MIC Alone: 128 µg/mL
[10]; P. aeruginosa PA032
  Peptide MIC + Tobramycin: 64 µg/mL
  Tobramycin MIC + Peptide: 4 µg/mL
[10]; [21]
  Peptide MIC Alone: >128 µg/mL
[10]; S. aureus 19 MRSA
  Piperacillin MIC + Peptide: 32 µg/mL
[10]; S. aureus 19 MRSA, Piperacillin section
  Peptide MIC Alone: 4 µg/mL
[10]; [29]
  Peptide MIC + Tobramycin: 2 µg/mL
  Tobramycin MIC + Peptide: 2 µg/mL
[10]; S. aureus SA014 (also SA014 MRSA), Tobramycin section
  Peptide MIC Alone: 4 µg/mL
[10]; S. aureus SB3MRSA
  Peptide MIC + Piperacillin: 2 µg/mL
  Piperacillin MIC + Peptide: 64 µg/mL
[10]; S. aureus SB3MRSA, Piperacillin section
  Peptide MIC Alone: 8 µg/mL
[10]; S. haemolyticus SHA005
  Peptide MIC + Tobramycin: 2 µg/mL
  Tobramycin MIC + Peptide: 0.25 µg/mL
[10]; S. haemolyticus SHA005, Tobramycin section
  Peptide MIC Alone: 4 µg/mL
[10]; S. maltophilia SMA029
  Peptide MIC + Tobramycin: 4 µg/mL
  Tobramycin MIC + Peptide: 32 µg/mL
[10]; [22]
  Peptide MIC Alone: 128 µg/mL
[10]; S. maltophilia SMA030
  Peptide MIC + Tobramycin: 32 µg/mL
  Tobramycin MIC + Peptide: 1 µg/mL
[10]; [23]
  Peptide MIC Alone: 128 µg/mL
[10]; [24]
  FIC: 0.51
[10]; peptide + Piperacillin, P. aeruginosa 41
  FIC: 0.63
[10]; peptide + Piperacillin, S. aureus 19 MRSA
  FIC: 0.38
[10]; peptide + Piperacillin, S. aureus SB3MRSA
  FIC: 0.50
[10]; [25]
  FIC: 0.53
[10]; peptide + Tobramycin, A. baumannii ABI002
  FIC: 1.00
[10]; [26]
  FIC: 0.50
[10]; peptide + Tobramycin, S. aureus SA014 (also SA014 MRSA)
  FIC: 0.51
[10]; peptide + Tobramycin, S. haemolyticus SHA005
  FIC: 0.56
[10]; [27]
  FIC: 0.28
[10]; [28]
  FIC: 0.26
[11]; E. cloacae ECL007, unmodified parent peptide
  MIC, Peptide: >128 µg/mL
[11]; E. cloacae strain ECL007
  MIC: >128 µg/mL
[12]; E. faecalis EFS001
  MIC, Peptide: 32 µg/mL
[12]; E. faecalis EFS004
  MIC, Peptide: 16 µg/mL
[12]; E. faecalis EFS008
  MIC, Peptide: 16 µg/mL
[12]; E. faecalis strain EFS002
  MIC: 8 µg/mL
[13]; 12 mg/kg ip
  % Survival: 0%
[13]; 18 mg/kg ip
  % Survival: 10%
[13]; 24 mg/kg ip
  % Survival: 90%
[14]; S. maltophilia SMA002, unmodified parent peptide
  MIC, Peptide: 64 µg/mL
[14]; S. maltophilia strain SMA002
  MIC: 64 µg/mL
[15]; P. aeruginosa PA004, unmodified parent peptide
  MIC, Peptide: 128 µg/mL
[15]; P. aeruginosa strain PA041
  MIC: 128 µg/mL
[16]
  MIC: >128 µg/mL
[17]; A. calcoaceticus AC002, unmodified parent peptide
  MIC, Peptide: 2 µg/mL
[17]; A. calcoaceticus strain AC002
  MIC: 4 µg/mL
[18]; S. aureus SA010
  MIC, Peptide: 2 µg/mL
[18]; S. aureus SA011
  MIC, Peptide: 8 µg/mL
[18]; S. aureus SA014
  MIC, Peptide: 8 µg/mL
[18]; S. aureus SA018
  MIC, Peptide: 16 µg/mL
[18]; S. aureus SA025
  MIC, Peptide: 2 µg/mL
[18]; S. aureus SA093
  MIC, Peptide: 1 µg/mL
[18]; S. aureus strain SA005
  MIC: 2 µg/mL
